Key:
RPE cells [1] = experiment: 52-week oral study in the Cynomolgus monkey, conventional histopathology; type: in vivo
Experimental: Soraprazan was administrated in oral application of 6, 12 and 24 mg/kg/day for 52 weeks in the Cynomolgus monkey.
Some monkeys from the control and the high-dose group were subjected to a recovery period of 3 months.
Two of these 3 monkeys had depigmentation of RPE cells although the photoreceptors facing the depigmented RPE stayed healthy. These RPE cells had released melanin as well as lipofuscin granules to secondary cells that had migrated between Bruch's membrane and the RPE cell layer or into the subretinal space.

[2] = system: retinal pigment epithelium; experiment: Transmission electron microscopy of RPE and photoreceptors after 52 weeks oral treatment; type: in vivo, Cynomolgus monkey
Experimental: In the present example the effect of Soraprazan on pigmentation of the retinal pigment epithelium in the Cynomolgus monkey (4 years of age) after oral application of 24 mg/kg/day for 52 weeks is shown.
Right eyes from the following animals were subjected to transmission electron microscopy:
Right eyes were removed carefully. A circular slit was cut at the limbus in order to immerse the inner eye with the fixation fluid (5% Glutaraldehyd in […] Cacodylat buffer). From these eyes, specimens ([…] in diameter) from the macula and from the mid-area were cut out, were postfixed in OsO4, treated with uranylacetate, dehydrated and embedded in Epon resin.
Semithin sections (0.7 μm) were prepared from Epon resin blocks. They were stained with toluidin blue and evaluated under a light microscope. Subsequently, ultrathin sections (50 nm) were cut from Epon resin blocks, contrasted and evaluated in a transmission electron microscope.
The number of lipofuscin granules that were smaller than 0.4 μm in diameter was counted in the cytoplasm of ultrathin sections of RPE cells from untreated and treated monkeys. In addition the same counts were performed in macrophages located between RPE and Bruch's membrane of treated monkeys. The results were 4.9±0.6/50 μm^2, 0.6±0.2/50 μm^2; […]. Lipofuscin granules larger than 1 μm in diameter were absent in RPE cells of treated animals. In contrast many of them were present in RPE cells of untreated monkeys.

RPE cells [3] = experiment: Fluorescence microscopy of lipofuscin granules in RPE sections of treated monkeys; type: in vivo, Cynomolgus monkey
From the text: Section was illuminated under the fluorescence microscope with 360 nm wavelength light. Lipofuscin granules were detected by the emission of gold-yellow light with […] wavelength. […] Macrophages between the RPE and Bruch's membrane, however, contained many lipofuscin granules. The majority of these granules were smaller than those in RPE cells of untreated animals.

[4] = system: Retinal pigment epithelium (RPE) cells from human donor eyes; experiment: Lipofuscin content and pigmentation in cultured RPE cells from human donor eyes (digital image analysis); type: cell-based; details: for Lipofuscin and pigment content in cultured RPE cells: 50 μg/ml or 0.25 mM, permanent exposure, versus control; for Lipofuscin and melanin in cultured human RPE cells: after 26 days of treatment (FIG. 18)
Experimental: Retinal pigment epithelium (RPE) cells from human donor eyes were cultured and exposed permanently to either vehicle solution, solution of Soraprazan or solution of 7R,8R,9R)-2,3-Dimethyl-7-ethoxy-8-hydroxy-9-phenyl-7,8,9,10-tetrahydro-imidazo-[1,2-h][1,7]-naphthyridin (called substance 1) at a concentration of 50 μg/ml or 0.25 mM. At several time points, digital images were taken and analysed with respect to the portion of lipofuscin and pigmentation in general. As the results did strongly depend on the random choice of microscopic field and the variations of the data were very high, the values of four consecutive days of five independent experiments were averaged. The results for the lipofuscin content in the RPE cells are shown in the diagram (FIG. 18).
Retinal pigment epithelium (RPE) cells from human donor eyes were cultured and exposed permanently to either vehicle solution, solution of Soraprazan or solution of substance 1 (concentration 50 μg/ml or 0.25 mM). At several time points, digital images were taken and analysed with respect to the portion of lipofuscin and pigmentation in general.

[5] = system: photoreceptors and post-receptoral systems; experiment: Electroretinography (ERG) after intravitreal injection in Wistar rats; type: in vivo; details: for ERG a-wave and b-wave amplitudes after injection, compared with vehicle: intravitreal, 50 μg/ml or 0.25 mM in the vitreous, highest light intensity, initial decrease; for ERG a-wave and b-wave amplitudes, recovery: three weeks after the intravitreal injection
Experimental: (§1) The effects of lipofuscin in vivo, i.e. in the living eye of experimental rats after an intravitreal injection of the compounds were investigated. Vehicle solution or solutions of either substance 1 or Soraprazan were injected intravitreally in half-year old Wistar rats. The final concentration in the vitreous was the same as in the cell cultures, i.e. 50 μg/ml or 0.25 mM. In order to avoid mutual interactions between the two eyes of an animal, both eyes of an animal were treated the same way, with three animals (i.e. six eyes) per group.
(§2) Two kinds of evaluation were performed in these animals—electroretinography (ERG) for functional testing, and counting of lipofuscin particles to check whether the administration of the compounds leads to a decrease of lipofuscin contents in the RPE.
Before the injection, electroretinograms were measured to obtain base line values. Additional ERG measurements were performed one, two and three weeks after the intravitreal injections. Some results are shown in the diagrams below.

RPE = experiment: Counting of fluorescent lipofuscin particles in RPE after intravitreal injection in Wistar rats; type: in vivo; details: three weeks after one single intravitreal injection, 50 μg/ml or 0.25 mM in the vitreous
Experimental: as §1, §2
The eyes were isolated after three weeks, fixed in formalin and embedded in paraffin. Paraffin sections were made, and digital fluorescence images were evaluated. The number of fluorescent lipofuscin particles per 50 μm RPE layer length was counted. The results are shown in the diagram (FIG. 21).

[6] = system: Heavily pigmented human donor RPE cells; experiment: Electron microscopy / semithin sections of heavily pigmented human donor RPE cells, degradational clusters; type: cell-based; details: 28 days
Experimental: Heavily pigmented human donor RPE cells (passage)) were treated with 50 μg/ml substance 1 or 30 μg/ml Soraprazan and cultured for 28 days. Cells without treatment were used as controls. Cells were fixed for electron microscopy in 2% glutaraldehyde and embedded in EPON. Semithin and ultrathin sections were cut.
In the semithin sections, the clusters could be observed as well. Here, the pigmented cells bearing one or more clusters were counted. Degradational clusters were detected in 90.5%+/−21.3 of cells treated with substance 1 and in 80.1%+/−22.6 of cells treated with Soraprazan, but only in 16.8%+/−21.6 of untreated cells (p<0.0001).

[7] = system: RPE cell cultures from human donor eyes; experiment: Phagocytosis of fluorescent latex beads by RPE cell cultures; type: cell-based
Experimental: Then the treatment-dependent ability of the cells to phagocytose, which is a crucial function of the RPE, was checked. For this purpose, RPE cell cultures from human donor eyes were exposed to vehicle or substance 1. After three weeks, fluorescent latex beads were added to the cell cultures for four hours. The cells were then washed to remove non-phagocytosed beads and fixed. Fluorescent images of the cells were taken and analysed for the contents of lipofuscin and the number of phagocytosed beads. The results shown in FIG. 19 are presented as the relationship between lipofuscin content and phagocytosed bead number in both controls and substance-1-treated cells.

CO[C@H]1c2ccn3c(C)c(C)nc3c2N[C@@H](c2ccccc2)[C@@H]1O [Example 1B, (7S,8S,9S)-2,3-Dimethyl-8-hydroxy-7-methoxy-9-phenyl-7,8,9,10-tetrahydro-imidazo[1,2-h][1,7]naphthyridine]
melting point: 161 to 162 °C

CO[C@H]1c2ccn3c(C)c(C)nc3c2N[C@H](c2ccccc2)[C@H]1O [Example 2A, (7S,8R,9R)-2,3-Dimethyl-8-hydroxy-7-methoxy-9-phenyl-7,8,9,10-tetrahydro-imidazo[1,2-h][1,7]naphthyridine]
melting point: 108 to 110 °C

CO[C@@H]1c2ccn3c(C)c(C)nc3c2N[C@@H](c2ccccc2)[C@@H]1O [Example 2B, (7R,8S,9S)-2,3-Dimethyl-8-hydroxy-7-methoxy-9-phenyl-7,8,9,10-tetrahydro-imidazo[1,2-h][1,7]naphthyridine]
melting point: 171 to 172 °C

CCO[C@H]1c2ccn3c(C)c(C)nc3c2N[C@H](c2ccccc2)[C@H]1O [Example 4, (7S,8R,9R)-2,3-Dimethyl-7-ethoxy-8-hydroxy-9-phenyl-7,8,9,10-tetrahydro-imidazo[1,2-h][1,7]naphthyridine]
melting point: 135 to 137 °C

Cc1nc2c3c(ccn2c1C)[C@H](OC(C)C)[C@H](O)[C@@H](c1ccccc1)N3 [Example 7, (7S,8R,9R)-2,3-Dimethyl-8-hydroxy-9-phenyl-7-(2-propoxy)-7,8,9,10-tetrahydro-imidazo[1,2-h][1,7]naphthyridine]
melting point: 168 to 169 °C

CO[C@@H]1[C@@H](c2ccccc2)Nc2c(ccn3c(C)c(C)nc23)[C@H]1OC [Example 8, (7R,8R,9R)-2,3-Dimethyl-7,8-dimethoxy-9-phenyl-7,8,9,10-tetrahydro-imidazo[1,2-h][1,7]naphthyridine]
melting point: 155 to 156 °C

COCCO[C@@H]1c2ccn3c(C)c(C)nc3c2N[C@H](c2ccccc2)[C@H]1O [Soraprazan, (7R,8R,9R)-2,3-Dimethyl-8-hydroxy-7-(2-methoxyethoxy)-9-phenyl-7,8,9,10-tetrahydro-imidazo[1,2-h][1,7]naphthyridine]
Conventional histopathology (RPE cells [1]; oral 6 mg/kg/day for 52 weeks): no alterations
Conventional histopathology (RPE cells [1]; oral 12 mg/kg/day for 52 weeks): no alterations
Monkeys showing migration of individual macrophages beneath the RPE and/or into the subretinal space (RPE cells [1]; oral 24 mg/kg/day for 52 weeks): Three out of 12
Morphological changes in the neuroretina at the ultrastructural level ([2]; 24 mg/kg/day for 52 weeks): No morphological changes
Monkeys with loss of melanin and lipofuscin in RPE cells ([2]; oral 24 mg/kg/day, 52 weeks): 3 out of 7
Ultrastructural alterations in the retina compared to untreated monkeys ([2]; oral 24 mg/kg/day, 52 weeks): could not be detected
Lipofuscin granules larger than 1 μm in diameter in RPE cells ([2]; treated animals): absent
Number of lipofuscin granules smaller than 0.4 μm in diameter in the cytoplasm of RPE cells ([2]; ultrathin sections, treated monkeys): 0.6±0.2 /50 μm^2
Lipofuscin granules in depigmented RPE cells (fluorescence, 360 nm illumination) (RPE cells [3]): completely or almost completely absent
Lipofuscin and pigment content in cultured RPE cells [4]: decreased compared to the control
Lipofuscin and melanin in cultured human RPE cells [4]: reduced
ERG a-wave and b-wave amplitudes after injection, compared with vehicle [5]: decrease of the amplitudes is even more pronounced
ERG a-wave and b-wave amplitudes, recovery [5]: remained significantly lower than the base line
Number of fluorescent lipofuscin particles per 50 μm RPE layer length (RPE): 15.0±8.3 particles per 50 μm
Pigmented cells bearing degradational clusters ([6]; 30 μg/ml): 80.1%+/−22.6

CCO[C@@H]1c2ccn3c(C)c(C)nc3c2N[C@H](c2ccccc2)[C@H]1O [substance 1]
Lipofuscin and pigment content in cultured RPE cells [4]: even more clear and significant decrease
Lipofuscin and melanin in cultured human RPE cells [4]: reduced
Lipofuscin content of RPE cells ([7]; after three weeks exposure, versus control (FIG. 19)): much more lipofuscin under control conditions than under the influence of substance 1
Number of phagocytosed latex beads ([7]; three weeks exposure, beads for four hours, versus untreated cells (FIG. 19)): phagocytosed more beads than untreated cells
ERG a-wave and b-wave amplitudes after injection, compared with vehicle [5]: decrease of the amplitudes is even more pronounced
ERG a-wave and b-wave amplitudes, recovery [5]: recover almost completely
Number of fluorescent lipofuscin particles per 50 μm RPE layer length (RPE): 9.8±6.1 particles per 50 μm
Pigmented cells bearing degradational clusters ([6]; 50 μg/ml): 90.5%+/−21.3
